The values that follow come from patent publication US7220744B2, “Monocyclic substituted phenyl methanones” (Hoffman-La Roche Inc., priority 2005, dated 2007).

In this test the target is T1, mGlyT-1b (Mus musculus, UniProt P28571).
T1 construct: host or cells: Flp-in-CHO cells (vendor and catalogue number are those of the host cell line)
T1 sequence (P28571 1-651 isoform P28571-2): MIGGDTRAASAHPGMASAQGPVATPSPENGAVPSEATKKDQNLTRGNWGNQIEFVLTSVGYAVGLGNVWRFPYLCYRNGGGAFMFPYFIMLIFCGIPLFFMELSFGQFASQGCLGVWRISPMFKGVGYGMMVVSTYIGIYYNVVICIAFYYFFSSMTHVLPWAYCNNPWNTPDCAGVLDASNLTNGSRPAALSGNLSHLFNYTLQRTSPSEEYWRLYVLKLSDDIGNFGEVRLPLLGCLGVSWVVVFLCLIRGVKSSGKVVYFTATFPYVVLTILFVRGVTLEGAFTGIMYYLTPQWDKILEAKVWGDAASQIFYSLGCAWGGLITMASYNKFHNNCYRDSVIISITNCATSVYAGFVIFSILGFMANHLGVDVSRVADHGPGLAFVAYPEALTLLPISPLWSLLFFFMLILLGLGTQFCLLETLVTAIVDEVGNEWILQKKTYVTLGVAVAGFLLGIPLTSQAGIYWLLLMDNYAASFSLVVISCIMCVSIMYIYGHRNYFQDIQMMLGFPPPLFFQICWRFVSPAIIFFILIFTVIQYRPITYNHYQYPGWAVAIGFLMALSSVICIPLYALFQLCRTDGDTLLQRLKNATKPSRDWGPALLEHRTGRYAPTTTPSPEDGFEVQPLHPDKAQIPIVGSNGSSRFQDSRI
Nature of the test: Glycine Uptake Inhibition Assay (mGlyT-1b). It is filed as cell-based. To be noted: inhibition of [3H]-glycine uptake in Flp-in-CHO cells transfected with mGlyT-1b cDNA; 20 min preincubation at 22° C.; read-out: IC50 (μM) at GlyT-1. The procedure:
DMEM complete medium: Nutrient mixture F-12 (Gibco Life-technologies), fetal bovine serum (FBS) 5%, (Gibco life technologies), Penicillin/Streptomycin 1% (Gibco life technologies), Hygromycin 0.6 mg/ml (Gibco life technologies), Glutamine 1 mM Gibco life technologies)
Uptake buffer (UB): 150 mM NaCl, 10 mM Hepes-Tris, pH 7.4, 1 mM CaCl2, 2.5 mM KCl, 2.5 mM MgSO4, 10 mM (+) D-glucose.
Flp-in™-CHO (Invitrogen Cat n° R758-07) cells stably transfected with mGlyT1b cDNA.
Glycine Uptake Inhibition Assay (mGlyT-1b)
On day 1 mammalian cells, (Flp-in™-CHO), transfected with mGlyT-1b cDNA, were plated at the density of 40,000 cells/well in complete F-12 medium, without hygromycin in 96-well culture plates. On day 2, the medium was aspirated and the cells were washed twice with uptake buffer (UB). The cells were then incubated for 20 min at 22° C. with either (i) no potential competitor, (ii) 10 mM non-radioactive glycine, (iii) a concentration of a potential inhibitor. A range of concentrations of the potential inhibitor was used to generate data for calculating the concentration of inhibitor resulting in 50% of the effect (e.g. IC50, the concentration of the competitor inhibiting glycine uptake of 50%). A solution was then immediately added containing [^3H]-glycine 60 nM (11–16 Ci/mmol) and 25 μM non-radioactive glycine. The plates were incubated with gentle shaking and the reaction was stopped by aspiration of the mixture and washing (three times) with ice-cold UB. The cells were lysed with scintillation liquid, shaken 3 hours and the radioactivity in the cells was counted using a scintillation counter.

Take `Cc1nc(N2CCN(C(=O)c3cc(S(C)(=O)=O)ccc3O[C@H](C)C(F)(F)F)CC2)sc1C(F)(F)F` [Example 81, [5-Methanesulfonyl-2-((R)-2,2,2-trifluoro-1-methyl-ethoxy)-phenyl]-[4-(4-methyl-5-trifluoromethyl-thiazol-2-yl)-piperazin-1-yl]-methanone]: the IC50 (usually the midpoint of a concentration-inhibition curve) came out at 0.044 µM.
For `CC(C)Sc1ccc(S(C)(=O)=O)cc1C(=O)N1CCN(c2ncc(C(F)(F)F)s2)CC1` [Example 84, (2-Isopropylsulfanyl-5-methanesulfonyl-phenyl)-[4-(5-trifluoromethyl-thiazol-2-yl)-piperazin-1-yl]-methanone] the value was 0.076 µM.
With `C[C@H](Oc1ccc(S(C)(=O)=O)cc1C(=O)N1CCN(c2nnc(C(F)(F)F)s2)CC1)C(F)(F)F` [Example 93, [5-Methanesulfonyl-2-((S)-2,2,2-trifluoro-1-methyl-ethoxy)-phenyl]-[4-(5-trifluoromethyl-[1,3,4]thiadiazol-2-yl)-piperazin-1-yl]-methanone] the figure was 0.075 µM.
With `CNS(=O)(=O)c1ccc(OC2CCCC2)c(C(=O)N2CCN(c3ncc(C#N)s3)CC2)c1` [Example 99, 3-[4-(5-Cyano-thiazol-2-yl)-piperazine-1-carbonyl]-4-cyclopentyloxy-N-methyl-benzenesulfonamide] the figure was 0.021 µM; with `CNS(=O)(=O)c1ccc(OC2CCCC2)c(C(=O)N2CCN(c3nc(-c4ccccc4)ns3)CC2)c1` [Example 100, 4-Cyclopentyloxy-N-methyl-3-[4-(3-phenyl-[1,2,4]thiadiazol-5-yl)-piperazine-1-carbonyl]-benzenesulfonamide], 0.055 µM.
Regarding `CNS(=O)(=O)c1ccc(OC2CCCC2)c(C(=O)N2CCN(c3nnc(C(F)(F)F)s3)CC2)c1` [Example 101, 4-Cyclopentyloxy-N-methyl-3-[4-(5-trifluoromethyl-[1,3,4]thiadiazol-2-yl)-piperazine-1-carbonyl]-benzenesulfonamide], the IC50 is 0.026 µM.
For `CS(=O)(=O)c1ccc(OCC(F)(F)C(F)(F)F)c(C(=O)N2CCN(c3ncc(C(F)(F)F)s3)CC2)c1` [Example 103, [5-Methanesulfonyl-2-(2,2,3,3,3-pentafluoro-propoxy)-phenyl]-[4-(5-trifluoromethyl-thiazol-2-yl)-piperazin-1-yl]-methanone], the IC50 was determined as 0.006 µM.
